Experimental data reported in patent US8691816B2, “Pyrrole inhibitors of S-nitrosoglutathione reductase as therapeutic agents” (N30 Pharmaceuticals, Inc., priority 2008, dated 2014).

Target: T1, GSNOR (GSNO Reductase) (Homo sapiens, UniProt P11766)
T1 construct: made in house; host or cells: E. coli (arabinose induction)
Assay: GSNOR assay (in vitro inhibition of GSNOR activity, NADH absorbance at 340 nm)
Format: biochemical
Details: 0.240 mM GSNO, 0.300 mM NADH, 0.5 μg/mL GSNO Reductase, pH 7.4, 25° C.
Protocol: Various compounds were tested in vitro for their ability to inhibit GSNOR activity. Representative compounds and their corresponding GSNOR activity are described in a paragraph before Table 1 above. GSNOR expression and purification is described in Biochemistry 2000, 39, 10720-10729.
GSNOR fermentation: Pre-cultures were grown from stabs of a GSNOR glycerol stock in 2XYT media containing 100 ug/ml ampicillin after an overnight incubation at 37° C. Cells were then added to fresh 2XYT (4 L) containing ampicillin and grown to an OD (A600) of 0.6-0.9 at 37° C. before induction. GSNOR expression was induced with 0.1% arabinose in an overnight incubation at 20° C.
GSNOR Purification: E. coli cell paste was lysed by nitrogen cavitation and the clarified lysate purified by Ni affinity chromatography on an AKTA FPLC (Amersham Pharmacia). The column was eluted in 20 mM Tris pH 8.0/250 mM NaCl with a 0-500 mM imidazole gradient. […] GSNOR was recovered in the flowthrough fraction and for crystallography is further purified by Q-Sepharose and Heparin flowthrough chromatography in 20 mM Tris pH 8.0, 1 mM DTT, 10 uM ZnSO4.
GSNOR assay: GSNO and Enzyme/NADH Solutions are made up fresh each day. The Solutions are filtered and allowed to warm to room temperature. GSNO Solution: 100 mM NaPO4 (pH 7.4), 0.480 mM GSNO. 396 μL of GSNO Solution is added to a cuvette followed by 8 μL of test compound in DMSO (or DMSO only for full reaction control) and mixed with the pipette tip. Compounds to be tested are made up at a stock concentration of 10 mM in 100% DMSO. 2 fold serial dilutions are done in 100% DMSO. 8 μL of each dilution are added to an assay so that the final concentration of DMSO in the assay is 1%. The concentrations of compounds tested range from 100 to 0.003 μM. Enzyme/NADH Solution: 100 mM NaPO4 (pH 7.4), 0.600 mM NADH, 1.0 μg/mL GSNO Reductase. 396 μL of the Enzyme/NADH Solution is added to the cuvette to start the reaction. The cuvette is placed in the Cary 3E UV/Visible Spectrophotometer and the change in 340 nm absorbance/min at 25° C. is recorded for 3 minutes. The assays are done in triplicate for each compound concentration. IC50's for each compound are calculated using the standard curve analysis in the Enzyme Kinetics Module of SigmaPlot.
Final assay conditions: 100 mM NaPO4, pH 7.4, 0.240 mM GSNO, 0.300 mM NADH, 0.5 μg/mL GSNO Reductase and 1% DMSO. Final volume: 800 μL/cuvette.

T1 sequence (P11766 whole entry): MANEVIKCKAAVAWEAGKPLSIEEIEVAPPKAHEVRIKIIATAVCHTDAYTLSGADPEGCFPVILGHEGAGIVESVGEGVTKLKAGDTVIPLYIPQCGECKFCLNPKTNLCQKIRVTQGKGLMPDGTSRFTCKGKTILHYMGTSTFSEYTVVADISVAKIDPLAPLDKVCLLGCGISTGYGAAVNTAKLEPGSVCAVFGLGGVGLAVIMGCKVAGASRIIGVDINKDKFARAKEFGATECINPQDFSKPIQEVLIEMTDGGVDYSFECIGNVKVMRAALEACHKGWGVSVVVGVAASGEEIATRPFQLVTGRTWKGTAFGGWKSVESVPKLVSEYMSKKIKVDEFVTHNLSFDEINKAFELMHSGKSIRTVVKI

IC50 [nM] | Structure (SMILES)
< 1000 | CCc1nccn1-c1ccc(-c2ccc(CCC(=O)O)n2-c2ccc(C(N)=O)cc2C)cc1 [Compound 69, 3-(1-(4-carbamoyl-2-methylphenyl)-5-(4-(2-ethyl-1H-imidazol-1-yl)phenyl)-1H-pyrrol-2-yl)propanoic acid]
< 1000 | COc1ccc(-c2ccc(CCC(=O)O)n2-c2ccc(O)cc2Cl)cc1 [Compound 80, 3-(1-(2-chloro-4-hydroxyphenyl)-5-(4-methoxy-phenyl)-1H-pyrrol-2-yl)propanoic acid]
< 1000 | COc1ccc(-c2ccc(CCC(=O)O)n2-c2ccc(C(N)=O)cc2C)c(C)c1 [Compound 110, 3-(1-(4-carbamoyl-2-methylphenyl)-5-(4-methoxy-2-methylphenyl)-1H-pyrrol-2-yl)propanoic acid]
< 1000 | COc1ccc(-c2ccc(CCC(=O)O)n2-c2ccc(C(N)=O)cc2C)c(Cl)c1 [Compound 118, 3-(1-(4-carbamoyl-2-methylphenyl)-5-(2-chloro-4-methoxy-phenyl)-1H-pyrrol-2-yl)propanoic acid]
< 1000 | Cc1cc(C(N)=O)ccc1-n1c(CCC(=O)O)ccc1-c1cc(-n2ccnc2)cs1 [Compound 120, 3-(5-(4-(1H-imidazol-1-yl)thiophen-2-yl)-1-(4-carbamoyl-2-methylphenyl)-1H-pyrrol-2-yl)propanoic acid]
< 1000 | Cc1cc(C(N)=O)ccc1-n1c(CCC(=O)O)ccc1-c1cc(-n2ccnc2C)cs1 [Compound 144, 3-(1-(4-carbamoyl-2-methylphenyl)-5-(4-(2-methyl-1H-imidazol-1-yl)thiophen-2-yl)-1H-pyrrol-2-yl)propanoic acid]
< 1000 | COc1cc(-n2ccnc2C)ccc1-c1ccc(CCC(=O)O)n1-c1ccc(C(N)=O)cc1C [Compound 146, 3-(1-(4-carbamoyl-2-methylphenyl)-5-(2-methoxy-4-(2-methyl-1H-imidazol-1-yl)phenyl)-1H-pyrrol-2-yl)propanoic acid]
< 1000 | Cc1cc(C(N)=O)ccc1-n1c(CCC(=O)O)ccc1-c1ccc(Cl)cc1C(N)=O [Compound 152, 3-(1-(4-carbamoyl-2-methylphenyl)-5-(2-carbamoyl-4-chloro-phenyl)-1H-pyrrol-2-yl)propanoic acid]
< 5000 | Cc1cc(NS(C)(=O)=O)ccc1-n1c(CCC(=O)O)ccc1-c1cc(Br)cs1 [Compound 183, 3-(5-(4-bromothiophen-2-yl)-1-(2-methyl-4-(methyl-sulfonamido)-phenyl)-1H-pyrrol-2-yl)propanoic acid]
< 1000 | Cc1cc(S(N)(=O)=O)ccc1-n1c(CCC(=O)O)ccc1-c1ccc(-n2ccnc2C)s1 [Compound 194]
< 1000 | COc1ccc(-c2ccc(CCC(=O)O)n2-c2ccc3ncccc3c2)cc1 [Compound 216, 3-(5-(4-methoxyphenyl)-1-(quinolin-6-yl)-1H-pyrrol-2-yl)propanoic acid]
< 1000 | Cc1cc2nc[nH]c2cc1-n1c(CCC(=O)O)ccc1-c1ccc(-n2ccnc2)cc1 [Compound 219, 3-(5-(4-(1H-imidazol-1-yl)phenyl)-1-(5-methyl-1H-benzo[d]imidazol-6-yl)-1H-pyrrol-2-yl)propanoic acid]
< 1000 | COc1ccc(-c2ccc(CCC(=O)O)n2-c2ccc(C(N)=O)c(Cl)c2)cc1 [Compound 221, 3-(1-(4-carbamoyl-3-chlorophenyl)-5-(4-methoxyphenyl)-1H-pyrrol-2-yl)propanoic acid]
< 5000 | COc1ccc(-c2ccc(CCC(=O)O)n2-c2ccc3ccncc3c2)cc1 [Compound 223, 3-(1-(isoquinolin-7-yl)-5-(4-methoxyphenyl)-1H-pyrrol-2-yl)propanoic acid]
< 5000 | COc1ccc(-c2ccc(CCC(=O)O)n2-c2ccc(F)c(C#N)c2)cc1 [Compound 226, 3-(1-(3-cyano-4-fluorophenyl)-5-(4-methoxyphenyl)-1H-pyrrol-2-yl)propanoic acid]
< 5000 | COc1ccc(-c2ccc(CCC(=O)O)n2-c2ccc(O)c(F)c2)cc1 [Compound 229, 3-(1-(3-fluoro-4-hydroxyphenyl)-5-(4-methoxyphenyl)-1H-pyrrol-2-yl)propanoic acid]
< 1000 | COc1ccc(-c2ccc(CCC(=O)O)n2-c2ccc3c(N)noc3c2)cc1 [Compound 231, 3-(1-(3-aminobenzo[d]isoxazol-6-yl)-5-(4-methoxyphenyl)-1H-pyrrol-2-yl)propanoic acid]
< 5000 | O=C(O)CCc1ccc(-c2ccccc2)n1-c1ccc(O)c(C(=O)O)c1 [Compound 232, 5-(2-(2-carboxyethyl)-5-phenyl-1H-pyrrol-1-yl)-2-hydroxybenzoic acid]
< 1000 | Cc1nccn1-c1ccc(-c2ccc(CCC(=O)O)n2-c2ccc3oc(=O)[nH]c3c2)cc1 [Compound 235, 3-(5-(4-(2-methyl-1H-imidazol-1-yl)phenyl)-1-(2-oxo-2,3-dihydrobenzo[d]oxazol-5-yl)-1H-pyrrol-2-yl)propanoic acid]
< 5000 | Cc1nccn1-c1ccc(-c2ccc(CCC(=O)O)n2-c2ccc3[nH]c(=O)oc3c2)cc1 [Compound 236, 3-(5-(4-(2-methyl-1H-imidazol-1-yl)phenyl)-1-(2-oxo-2,3-dihydrobenzo[d]oxazol-6-yl)-1H-pyrrol-2-yl)propanoic acid]
< 5000 | COc1ccc(-c2ccc(CCC(=O)O)n2-c2ccc(C(N)=O)s2)cc1 [Compound 237, 3-(1-(5-carbamoylthiophen-2-yl)-5-(4-methoxyphenyl)-1H-pyrrol-2-yl)propanoic acid]
< 5000 | COc1ccc(-c2ccc(CCC(=O)O)n2-c2ncc(C(N)=O)s2)cc1 [Compound 238, 3-(1-(5-carbamoylthiazol-2-yl)-5-(4-methoxyphenyl)-1H-pyrrol-2-yl)propanoic acid]
< 1000 | Cc1nccn1-c1ccc(-c2ccc(CCC(=O)O)n2-c2ccc(O)cc2)cc1 [Compound 249, 3-(1-(4-hydroxyphenyl)-5-(4-(2-methyl-1H-imidazol-1-yl)phenyl)-1H-pyrrol-2-yl)propanoic acid]
< 1000 | Cc1nccn1-c1csc(-c2ccc(CCC(=O)O)n2-c2ccc(O)cc2)c1 [Compound 255, 3-(1-(4-hydroxyphenyl)-5-(4-(2-methyl-1H-imidazol-1-yl)thiophen-2-yl)-1H-pyrrol-2-yl)propanoic acid]
< 1000 | COc1cc(Cl)ccc1-c1ccc(CCC(=O)O)n1-c1ccc(O)cc1 [Compound 262, 3-(5-(4-chloro-2-methoxyphenyl)-1-(4-hydroxyphenyl)-1H-pyrrol-2-yl)propanoic acid]
< 1000 | COc1cc(Cl)ccc1-c1ccc(CCC(=O)O)n1-c1ccc(C(N)=O)cc1 [Compound 264, 3-(1-(4-carbamoylphenyl)-5-(4-chloro-2-methoxyphenyl)-1H-pyrrol-2-yl)propanoic acid]
< 1000 | Cc1nccn1-c1csc(-c2ccc(CCC(=O)O)n2-c2ccc(NS(C)(=O)=O)cc2)c1 [Compound 267, 3-(5-(4-(2-methyl-1H-imidazol-1-yl)thiophen-2-yl)-1-(4-(methylsulfonamido)-phenyl)-1H-pyrrol-2-yl)propanoic acid]
< 1000 | Cc1nccn1-c1ccc(-c2ccc(CCC(=O)O)n2-c2ccc(O)cc2)s1 [Compound 273, 3-(1-(4-hydroxyphenyl)-5-(5-(2-methyl-1H-imidazol-1-yl)thiophen-2-yl)-1H-pyrrol-2-yl)propanoic acid]
